Reference: PubChem BioAssay AID179 (DTP/NCI, 2004)
pEC50, pIC50: −log10 of the molar value. The source made the active and inactive calls.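 The calls were made as follows: active = compounds giving half or more protection of infected cells from virus-caused growth loss, again on retest; inactive = the rest.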 Where a SMILES comes first, the peptide text is derived from it.

Tested on: CEM cells HIV-1 protection, formazan growth assay
Test: NCI AIDS Antiviral Assay
Settings: for pIC50: measured here: growth of uninfected CEM cells
In short: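 Screen of anti-HIV-1 activity in human CEM cells using a formazan-based growth measurement at five drug concentrations. Hits with 50% or greater protection were repeated, and confirmation required reproducible complete protection.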

Compound | outcome | pEC50 | pIC50
Cc1ccc(C2SC(N)=Nc3c2c(C)nn3C(=O)c2ccc(Cl)cc2)cc1 (stereo not drawn) | inactive | – | –
Oc1c(OCc2nnc(CCCCCCCCc3nnc(COc4ccc5ccccc5c4O)n3Nc3ccccc3)n2Nc2ccccc2)ccc2ccccc12 | – | < 5.70 | < 5.70
O=C1CSC2=NCCN12 | inactive | < 3.70 | < 3.70
CCOC(=O)N(NC(=O)NC(C)C)c1ccccc1 | – | < 3.70 | < 3.70
CC(C)(C)C1(c2ccc(C3(c4ccccc4)Oc4ccccc4S3)[nH]2)Oc2ccccc2S1 (stereo not drawn) | inactive | – | –
O=C(NO)c1ccc(OCc2ccccc2)cc1 | – | < 3.70 | 4.79
C[C@H]1CC(=O)C2=CCCC3(SCCCS3)[C@@H]2[C@H]1CO | inactive | – | –
Cc1c(CN2CCN(C)CC2)c(CN2CCN(C)CC2)c(C)n1-c1ccc(Cl)cc1 | – | < 3.82 | 4.58
COC1/C=C/OC2(C)Oc3c(C)c(O)c4c(O)c(c(C=NOC(c5ccccc5)c5ccccc5)c(O)c4c3C2=O)NC(=O)/C(C)=C/C=C/C(C)C(O)C(C)C(O)C(C)C(OC(C)=O)C1C (stereo not drawn) | – | < 3.70 | 5.32
CC(C)CC(N)C(=O)NC(CC(=O)O)C(=O)NC(CCCCN)C(=O)NC(C)C(=O)NC(CO)C(=O)NC(Cc1ccc(O)cc1)C(=O)NC(CO)C(=O)NC(C(=O)NC(CC(N)=O)C(=O)NC(Cc1cnc[nH]1)C(=O)NC(CC(C)C)C(N)=O)C(C)O (stereo not drawn) (H-LDKASYSTNHL-NH2; configuration not given here) | – | < 4.30 | < 4.30
CC1=C(c2cc(C(=O)Nc3cccc(C(F)(F)F)c3)nc(NC#N)n2)Sc2ccccc2N1 | inactive | – | –
COc1ccc(C(C(N)=O)N2CCCCC2)cc1 (stereo not drawn) | – | < 3.70 | < 3.70
CNc1ccc2ncccc2c1[N+](=O)[O-] | – | < 4.33 | < 4.33
O=C(Cc1nc2ccc(C(=O)c3ccccc3)cc2[nH]c1=O)C(=O)Nc1ccc(Br)cc1 | – | < 4.83 | < 4.83
Nc1ccc2nc(Nc3ccc(F)cc3)cnc2c1 | – | < 4.69 | < 4.69
Cc1cc2c(cc1Cl)SC(NNC(=O)c1ccccc1)=NS2(=O)=O | – | 3.91 | 3.88
COc1cc(OC)cc(Oc2nc3cc(F)c(F)cc3nc2-c2ccccc2)c1 | – | < 3.70 | < 3.70
CSCCC(NCc1c(O)ccc2ccc(=O)oc12)C(=O)O (stereo not drawn) | – | < 3.70 | < 3.70
Oc1ccccc1/C=N/N=C/c1ccccc1O | – | < 3.70 | < 3.70
CN(C)c1ccc(/C=C2/SC(=S)NC2=O)cc1 | – | < 4.42 | < 4.42
Cc1cc[n+]2cc(-c3ccc(/C=N/N=C(N)N)cc3)n(C)c2c1 | – | 4.28 | 4.26
Cc1c(C)c(C)c2c(c1C)C/C2=N/O | – | < 4.00 | < 4.00
CSc1ncc2c(C#N)c3ccccn3c(=O)c2n1 | – | < 3.70 | < 3.70

Compound | outcome | pEC50 | pIC50
CN1CCN(Cc2cc3c(nn2)-c2ccccc2C3=O)CC1 | – | < 3.70 | 3.96
O=C1NC2c3c(I)sc(I)c3C(O)C2O1 (stereo not drawn) | – | < 3.70 | 3.85
c1ccc2c(c1)nnn1c3cnccc3nc21 | – | < 4.23 | 5.17
NC(=O)C(=CN1C(=O)/C(=C/c2ccccc2O)SC1=S)C(N)=O | – | < 3.70 | 3.91
CCCN1C(=O)/C(=C(/O)C(=O)OCC)C(c2ccc(OC)c(OC)c2)C1=O (stereo not drawn) | inactive | – | –
Cc1cc(-c2c(O)c3ccc4ccccc4c3oc2=O)no1 | – | < 4.70 | < 4.70
OC1(c2ccccc2)N=C(c2ccccc2)c2ccccc2-n2cccc21 (stereo not drawn) | – | < 3.70 | < 3.70
CN(C)Cc1cc(C(=O)/C=C/c2ccc(O)cc2)cc(CN(C)C)c1O | inactive | – | –
COc1cc(/C=C2/SC(c3ccccc3)N(c3cccc([N+](=O)[O-])c3)C2=O)cc(OC)c1OC (stereo not drawn) | – | < 3.70 | 3.97
CC(C)(C)N=NNc1cn(C2OC(CO)C(O)C2O)c(=O)[nH]c1=O (stereo not drawn) | – | < 3.14 | < 3.14
O=C(O)CCCc1ccc2c(c1)C(C(=O)O)CC2 (stereo not drawn) | – | < 3.70 | < 3.70
CC(=O)Nc1ccc(C(=O)N2N=C(C)/C(=C/c3cccc(O)c3)C2=O)cc1 | – | < 3.86 | < 3.86
CO[C@](C(=O)OC[C@H]1[C@@H](COC(C)=O)[C@@H]2O[C@H]1c1cc3c(cc12)OCO3)(c1ccccc1)C(F)(F)F | – | < 3.70 | 5.12
CCCCCCCCCCCCC(Br)C(=O)OCC1OC(n2cc(C)c(=O)[nH]c2=O)CC1O (stereo not drawn) | – | < 3.70 | –
CC(=O)OC1=NC(C)c2c1cc(OC(C)=O)[nH]c2=O (stereo not drawn) | – | < 4.84 | < 4.84
Cc1cc(O)c2c(c1)C(=O)C=C(Br)C2=O | – | < 4.00 | 5.80
O=C(NCCN(CCNC(=O)c1cccc(O)c1O)CCNC(=O)c1cccc(O)c1O)c1cccc(O)c1O | – | < 3.70 | 5.47
COc1ccc2c(c1)C(=O)c1ccc(OC)cc1C2=S | inactive | – | –
ClCCCSSCCCCl | – | < 3.70 | 4.50
CC(=O)O[C@@H]1[C@H](OC2CCCCC2(c2ccccc2)c2ccccc2)O[N+]([O-])=CC12CCCCC2 (stereo partly drawn) | – | < 3.70 | 5.57
C=CC[C@]12C=C(OC)[C@@H](O)[C@](OC)(C(c3cc(OC)c4c(c3)OCO4)[C@H]1C)[C@H]2OC(C)=O (stereo partly drawn) | – | < 3.70 | 3.89
Cc1cc(=O)oc2cc(OCc3nc4ccccc4c(=O)o3)ccc12 | inactive | – | –
CCOC(=O)CC/C(=N/Nc1ccc(Cl)cc1[N+](=O)[O-])C(=O)OCC | – | < 3.70 | < 3.70

Compound | outcome | pEC50 | pIC50
CCOc1cc(C=Nc2ccc(Oc3ccc(Cl)cc3)c(Cl)c2)ccc1O | – | < 3.70 | 4.53
CC(CCc1nc2ccccc2[nH]1)C1CCC2C3C(C[C@H](O)[C@]12C)[C@@]1(C)CC[C@@H](O)C[C@H]1C[C@H]3O (stereo partly drawn) | – | < 4.30 | 5.00
SCCSCCCSCCS | – | < 4.64 | < 4.64
OCC1OC(n2cnc3c(SSc4ncnc5c4ncn5C4OC(CO)C(O)C4O)ncnc32)C(O)C1O (stereo not drawn) | – | < 3.70 | < 3.70
CCCN(CCCCC(NC(C)=O)C(=O)NCc1ccccc1)C(=O)NC (stereo not drawn) | – | < 3.18 | < 3.18
O=c1[nH]nnc2c1cnn2C1CCCO1 (stereo not drawn) | inactive | – | –
O=P(O)(O)C(CSc1ccccc1)P(=O)(O)O | inactive | – | –
CCOC(=O)C(=O)/C(=C/N1CC(=O)NC1=S)C(=O)OCC | – | < 3.70 | < 3.70
COC(CN(C)C(=O)C(C)NC(=O)c1ccccc1)OC (stereo not drawn) | inactive | – | –
OC(CC(O)(C(F)(F)F)C(F)(F)F)C(O)c1ccco1 (stereo not drawn) | – | < 3.70 | 4.23
CC1=Nc2ccccc2NC(c2ccoc2)C1 (stereo not drawn) | – | < 4.64 | < 4.64
Cc1ccc(Nc2nc3c(s2)C(=O)c2ccccc2C3=O)c(C)c1 | – | < 4.52 | 4.80
CC1(C)CCCC2(C)C3C(O)CC2(C)C(O)C31 (stereo not drawn) | – | < 3.55 | < 3.55
COC(=O)c1[nH]c(=S)[nH]c(=O)c1-c1ccc(Cl)cc1 | – | 3.60 | 3.22
N[C@H](C(=O)O)[C@@H]1CC(Cl)=NO1 | – | < 4.82 | < 4.82
CCO[C@@H]1OC(=O)[C@H]2C(c3ccccc3Cl)=NO[C@@H]12 | – | < 3.75 | < 3.75
O=[N+]([O-])c1ccc(O)c(CN(Cc2ccccc2)Cc2c(O)ccc3ccccc23)c1 | – | < 3.70 | < 3.70
O=C(O)c1c2c(cc3c1CC1(Cc4ccccc4C1)C3)CCC2 | – | < 3.70 | 4.34
NC(CSS(=O)(=O)O)=NCCc1ccc(O)cc1 | – | < 3.70 | < 3.70
O=C(O)c1cscc1-c1cccc2ccccc12 | – | < 3.70 | 3.80
CNC(=O)OCc1c(COC(=O)NC)c2n(c1C)CS(=O)(=O)C2 | – | < 3.70 | < 3.70
CCc1c(-c2coc(CC/C(C)=C/c3ccccc3)n2)oc(OC)c(C)c1=O | – | < 5.02 | 6.60
CCN1C[C@]2(COC)CCC(OC)C34[C@@H]5C[C@@H]6C(O)[C@@H]5[C@](O)(C[C@@H]6OC)[C@@H](C[C@@H]32)[C@H]14 (stereo partly drawn) | inactive | – | –

Compound | outcome | pEC50 | pIC50
COc1ccc(Nc2c(C#N)c3n(c4ccccc24)c2ccccc2[n+]3C)cc1OC | – | < 3.70 | 5.51
O=C(O)c1ccc(-c2ccc(C(=C(F)F)C(F)(F)F)cc2)cc1 | inactive | – | –
O=C(O)CC12C3C4C5C3C1C5C42 (stereo not drawn) | – | < 3.24 | < 3.24
CSc1nc(SC)c2nc(Nc3ccccc3)sc2n1 | – | < 3.70 | 5.21
CC(=O)OC1(C#N)CC2OC1C1C2N=NN1C(=O)OC(C)(C)C (stereo not drawn) | – | < 3.68 | 4.54
C/C(=N\NC(=O)c1ccncc1)c1ccc(F)cc1 | – | < 3.44 | < 3.44
Cc1sc2c(c1C)c(=O)[nH]c1c(C#N)c(-c3ccc(Cl)cc3)cn12 | – | 3.73 | < 3.70
CN1CCN=C1c1ccc(NC(=O)Nc2ccc(NC(=O)Nc3ccc(C4=NCCN4C)cc3)cc2)cc1 | – | < 3.70 | 4.41
Cc1cc(=O)c2cc3nc(-c4cccnc4)oc3c(Br)c2o1 | – | 3.74 | < 3.70
O=C1C(Cl)N(c2ccccc2[N+](=O)[O-])C1c1c[nH]c2ccccc12 (stereo not drawn) | – | < 3.56 | 3.88
COc1cc(C2=NN(C)C(c3ccc([N+](=O)[O-])o3)C2)cc(OC)c1OC (stereo not drawn) | – | < 4.08 | 4.49
COc1ccc(C2c3cc(O)c(OC)cc3Oc3cc(OC)c(O)cc32)cc1 | – | < 3.70 | 5.07
COc1cccc(C2=NC(C(C)C)CO2)c1 (stereo not drawn) | – | < 3.64 | < 3.64
NC(=O)c1ncn(C2OC(CO)C(O)C2O)c1NC=O (stereo not drawn) | – | < 3.70 | < 3.70
BrCC[N+]12CCCN1CCC2 | inactive | – | –
O=c1nc(-c2ccccc2)scc1-c1ccccc1 | – | < 4.42 | < 4.42
CCCCCCCCCCCC[N+]12CC[N+](CCN)(CC1)CC2 | – | < 3.60 | 4.25
CC1(C)c2ccccc2-c2nc3ccccc3cc2C1N1CCOCC1 (stereo not drawn) | – | < 3.70 | 4.38
C[N+](C)(C)CC1CCC(C[N+](C)(C)C)C1=O (stereo not drawn) | inactive | – | –
CC(=O)C1(N=Nc2ccc(S(=O)(=O)Nc3ccccn3)cc2)CCOC1=O (stereo not drawn) | – | < 3.70 | < 3.70
